The values that follow come from paper PMC6478823, “A suite of phenotypic assays to ensure pipeline diversity when prioritizing drug-like Cryptosporidium growth inhibitors” (Nature Communications, 2019).

Read-outs that look alike come from different tables or passages of the source.

Assay [1] has as its system C. parvum DMC1 expression. Kind of assay: Sexual differentiation assay (DMC1 expression). Type of assay: cell-based, Cryptosporidium parvum. The conditions noted are these: compound at asexual EC90, 48-72 h; for Asexual to sexual differentiation: Mean % DMC1 inhibition (normalized to host nuclei), Average: average of replicates; for Asexual to sexual differentiation: Mean % DMC1 inhibition (normalized to host nuclei), Replicate 1a: single replicate 1; for Asexual to sexual differentiation: Mean % DMC1 inhibition (normalized to host nuclei), Replicate 2a: single replicate 2; for Asexual to sexual differentiation: Mean % DMC1 inhibition (normalized to host nuclei), Replicate 3a: single replicate 3. The gist of the method: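 Compounds applied at their previously determined asexual-assay EC90, and % inhibition of DMC1 expression reported. Readout: 4% paraformaldehyde fixation, immunostaining with mAb 1H10G7 plus fluorescein-lectin and Hoechst, tiled 20× imaging in 384-well format, ImageJ analysis counting lectin-positive then DMC1-positive parasites.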

The subject of assay [2] is C. parvum. In kind it is cell-based, Cryptosporidium parvum. The conditions noted are these: compound at EC90; for Invasion Assay: Mean % Inhibition (parasites), Average: average of replicates; for effect on host cell invasion / parasitophorous vacuole formation: result in words; for Invasion Assay: Mean % Inhibition (parasites), Replicate 1a: single biological replicate 1; for Invasion Assay: Mean % Inhibition (parasites), Replicate 2a: single biological replicate 2; for Invasion Assay: Mean % Inhibition (parasites), Replicate 3a: single biological replicate 3; for Invasion Assay: Mean % Inhibition (parasites), Replicate 4a: single biological replicate 4.

Assay [3] concerns cryptosporidiosis. The arrangement: method as in PMID 19954529. The conditions noted are these: versus approximately one-quarter of untreated children; cited from earlier work.
The subject of assay [4] is cryptosporidiosis. More on the design: method as in PMID 17253532. The conditions noted are these: cited from earlier work.
A further assay concerns purified N-WASp. The arrangement: method as in PMID 15235593. The conditions noted are these: at 10 µM; cited from earlier work.
The subject of assay [5] is C. parvum. Kind of assay: Time course infection experiment (PV numbers versus time).
Description: For quantification of parasitophorous vacuoles over time, HCT-8 cells were grown to greater than 90% confluence in 384-well plates and infected with 11,000 oocysts after triggering excystation.
For assay [6], the system named is C. parvum. Kind of assay: Time-lapse microscopy of live C. parvum egress. The conditions noted are these: 2 × EC90 (1.3 µM total).
Description: Cells were then imaged live with 5 min intervals using Nomarski optics and a ×60 oil objective (1.4 NA). […] After 3 h, cells were gently washed with warm complete media to remove oocyst shells before adding either compound or DMSO. Tiled 2 × 2 images were taken live at 20 min intervals using a ×40 dry objective (0.7 NA).
The test system of assay [7] is Cryptosporidium. The conditions noted are these: ref Castellanos-Gonzalez, et al. 2013. JID. and Love, et al. 2017. PLoS NTD.; cited from earlier work.
Assay [8] relates to Cryptosporidium. The arrangement: method as in earlier work. The conditions noted are these: ref Castellanos-Gonzalez, et al. 2013. JID. and Love, et al. 2017. PLoS NTD.; cited from earlier work.
Assay [9] concerns Cryptosporidium. More on the design: method as in Gorla, et al. 2014. AAC. The conditions noted are these: ref Gorla, et al. 2014. AAC.; cited from earlier work.

Take `CC(=O)Oc1ccccc1C(=O)Nc1ncc([N+](=O)[O-])s1` [Nitazoxanide]: in [1], the “Asexual to sexual differentiation: Mean % DMC1 inhibition (normalized to host nuclei), Average” value is 81.79%; the “Asexual to sexual differentiation: Mean % DMC1 inhibition (normalized to host nuclei), Replicate 1a” value was 79.14%; the “Asexual to sexual differentiation: Mean % DMC1 inhibition (normalized to host nuclei), Replicate 2a” value turned out to be 81.57%; the “Asexual to sexual differentiation: Mean % DMC1 inhibition (normalized to host nuclei), Replicate 3a” value is recorded as 59.72%. In addition, the “Asexual to sexual differentiation: Mean % DMC1 inhibition (normalized to host nuclei), Replicate 4a” value in assay [1] (single replicate 4) was 95.07%. In assay [1] (single replicate 5), the “Asexual to sexual differentiation: Mean % DMC1 inhibition (normalized to host nuclei), Replicate 5a” value is 93.41%. Moreover, in the assay on C. parvum [2], the “Invasion Assay: Mean % Inhibition (parasites), Average” value is listed as 13.83%; the “effect on host cell invasion / parasitophorous vacuole formation” value is given as “no significant effect on parasitophorous vacuole formation”; the “Invasion Assay: Mean % Inhibition (parasites), Replicate 1a” value was determined as 11%; the “Invasion Assay: Mean % Inhibition (parasites), Replicate 2a” value came out at 17%. Moreover, the “improvement after 1 week of treatment in young children” value in the assay on cryptosporidiosis [3] is recorded as “just over half of children studied”. In addition, the “efficacy in AIDS patients” value with cryptosporidiosis [4] is reported as “equivalent to a placebo”.

Take `CN(C)C[C@H](O)Cn1c2ccc(Br)cc2c2cc(Br)ccc21` (racemic) [Wiskostatin]: in assay [1], the “Asexual to sexual differentiation: Mean % DMC1 inhibition (normalized to host nuclei), Average” value is 45.76%; the “Asexual to sexual differentiation: Mean % DMC1 inhibition (normalized to host nuclei), Replicate 1a” value is reported as 43.95%; the “Asexual to sexual differentiation: Mean % DMC1 inhibition (normalized to host nuclei), Replicate 2a” value worked out at 47.58%. In the assay on C. parvum [2], the “Invasion Assay: Mean % Inhibition (parasites), Average” value is reported as 88.58%; the “effect on host cell invasion / parasitophorous vacuole formation” value is on record as “inhibited parasitophorous vacuole formation”; the “Invasion Assay: Mean % Inhibition (parasites), Replicate 1a” value turned out to be 90%; the “Invasion Assay: Mean % Inhibition (parasites), Replicate 2a” value is 92%. In the assay with C. parvum [2], the “Invasion Assay: Mean % Inhibition (parasites), Replicate 3a” value is recorded as 82% and the “Invasion Assay: Mean % Inhibition (parasites), Replicate 4a” value was 90%. In the assay with C. parvum [2] (listed as wiskostatin), the “effect on host cell invasion / parasitophorous vacuole formation” value was “active”. In the assay on purified N-WASp, the “inhibition of purified N-WASp” value is “inhibit purified N-WASp”.

Consider `Cc1cccc(-n2ncc3c(O)nc(-n4nc(C)cc4NC(=O)c4cc5ccccc5o4)nc32)c1` [C-1], for which the “Parasites Detected, Average” value with C. parvum [5] (C1 at 2*EC90, 6 h post-infection) amounted to 1992; in the assay with C. parvum [5] (C1 at 2*EC90, 9.5 h post-infection), 2503; in the assay on C. parvum [5] (C1 at 2*EC90, 12 h post-infection), 1773; in the assay on C. parvum [5] (C1 at 2*EC90, 13.5 h post-infection), 1847; in the assay with C. parvum [5] (C1 at 2*EC90, 15 h post-infection), 879; with C. parvum [5] (C1 at 2*EC90, 18 h post-infection), 1045. The “Parasites Detected, Average” value in the assay on C. parvum [5] (C1 at 2*EC90, 19.5 h post-infection) is reported as 1400; in the assay on C. parvum [5] (C1 at 2*EC90, 22.5 h post-infection), 945; in the assay on C. parvum [5] (C1 at EC90, 6 h post-infection) it was 2336; in the assay on C. parvum [5] (C1 at EC90, 9.5 h post-infection), 2363; in the assay with C. parvum [5] (C1 at EC90, 12 h post-infection) it was 2052; in the assay on C. parvum [5] (C1 at EC90, 13.5 h post-infection), 2149. The “Parasites Detected, Average” value in the assay with C. parvum [5] (C1 at EC90, 15 h post-infection) was found to be 1056; in the assay on C. parvum [5] (C1 at EC90, 18 h post-infection), 1258; with C. parvum [5] (C1 at EC90, 19.5 h post-infection), 2054; in the assay on C. parvum [5] (C1 at EC90, 22.5 h post-infection) it was 2003. Further, the “Asexual to sexual differentiation: Mean % DMC1 inhibition (normalized to host nuclei), Average” value in [1] is 30.35%. Also, the “Asexual to sexual differentiation: Mean % DMC1 inhibition (normalized to host nuclei), Replicate 1a” value in assay [1] is 26.21%. Also, the “Asexual to sexual differentiation: Mean % DMC1 inhibition (normalized to host nuclei), Replicate 2a” value in [1] turned out to be 37.12%. In addition, the “Asexual to sexual differentiation: Mean % DMC1 inhibition (normalized to host nuclei), Replicate 3a” value in assay [1] was found to be 27.73%. Further, in the assay with C. parvum [2], the “Invasion Assay: Mean % Inhibition (parasites), Average” value is on record as -10.80%. The “Invasion Assay: Mean % Inhibition (parasites), Replicate 1a” value with C. parvum [2] is -29%. Also, the “Invasion Assay: Mean % Inhibition (parasites), Replicate 2a” value with C. parvum [2] is recorded as -22%. For the same compound, in the assay with C. parvum [2], the “Invasion Assay: Mean % Inhibition (parasites), Replicate 3a” value is on record as 9%. Moreover, in the assay on C. parvum [2], the “Invasion Assay: Mean % Inhibition (parasites), Replicate 4a” value is reported as -0.416%. The “parasite egress during live microscopy” value in the assay with C. parvum [6] was “inhibited parasite egress”.

For the compound `CCOc1ccc2cc(-c3nn(CC4CCN(C)CC4)c4ncnc(N)c34)ccc2c1` [BKI-1294], in assay [1], the “Asexual to sexual differentiation: Mean % DMC1 inhibition (normalized to host nuclei), Average” value worked out at 45.56%; the “Asexual to sexual differentiation: Mean % DMC1 inhibition (normalized to host nuclei), Replicate 1a” value worked out at 58.94%; the “Asexual to sexual differentiation: Mean % DMC1 inhibition (normalized to host nuclei), Replicate 2a” value came out at 32.18%. In the assay with C. parvum [2], the “Invasion Assay: Mean % Inhibition (parasites), Average” value is -6.64%; the “Invasion Assay: Mean % Inhibition (parasites), Replicate 1a” value was 12%; the “Invasion Assay: Mean % Inhibition (parasites), Replicate 2a” value is recorded as -26%. The “anticryptosporidial activity in the acute IFN-γ knockout mouse infection model” value in the assay with Cryptosporidium [7] is on record as “previously demonstrated anticryptosporidial activity”. For the same compound, in the assay on Cryptosporidium [8], the “anticryptosporidial activity in SCID beige mice” value is “previously demonstrated anticryptosporidial activity”.

Take `CC(=NOCCN)c1cccc(C(C)(C)NC(=O)Nc2ccc(Cl)c(C(F)(F)F)c2)c1` [P257]: in assay [1], the “Asexual to sexual differentiation: Mean % DMC1 inhibition (normalized to host nuclei), Average” value is 70.52%; the “Asexual to sexual differentiation: Mean % DMC1 inhibition (normalized to host nuclei), Replicate 1a” value is 67.08%; the “Asexual to sexual differentiation: Mean % DMC1 inhibition (normalized to host nuclei), Replicate 2a” value amounted to 73.96%. In the assay on C. parvum [2], the “Invasion Assay: Mean % Inhibition (parasites), Average” value was 9.88%; the “Invasion Assay: Mean % Inhibition (parasites), Replicate 1a” value worked out at 4%; the “Invasion Assay: Mean % Inhibition (parasites), Replicate 2a” value is 16%. Also, the “efficacy in the acute IL-12 knockout mouse model of cryptosporidiosis” value in the assay with Cryptosporidium [9] is on record as “efficacious”.
